# Measured values taken from patent publication US8716279B2, “Pharmaceutical compositions of clonazepam and method of use thereof” (Jazz Pharmaceuticals, Inc., priority 2006, dated 2014).
# Key:
# [1] = Human pharmacokinetic, safety and tolerability study (oral, intravenous, intranasal cross-over)
# Protocol: The human pharmacokinetics, safety, and tolerability of the clonazepam compositions of the present invention formulated for intranasal delivery for therapeutic applications are evaluated using standard clinical procedures. Clonazepam compositions formulated for intranasal delivery are provided, for example, for application by the participants to intranasal mucosa.
# A primary objective of initial studies in humans is to determine and compare pharmacokinetic profiles of three dosage forms of clonazepam: oral, i.v., and intranasal, following single administration. An example of such a study in humans is a cross-over study performed in 12 healthy male volunteers. Plasma and urine level of clonazepam and 7-amino-clonazepam are determined, for example, using HPLC and UV detection. […] Further the initial studies in humans are used to determine local tolerability of intranasal formulation using questionnaire and the Visual Analog Scale (VAS). VAS is a validated instrument that has been used in numerous studies to quantify subjective opening of the nasal passages. In addition, cognitive, sleepiness and mood effects are evaluated using questionnaires and scales (see, e.g., Example 10 below). Further, attention and vigilance may be evaluated using, for example, LEEDS Psychomotor Multiple Choice Reaction Time (MCRT) testing.
# A human pharmacokinetic study was carried out as described in Example 8.
# 15 young, healthy male volunteers received a single dose of 1 mg clonazepam by oral, intravenous and intranasal routes in a three-period cross-over design.
# [2] = Psychomotor, subjective and cognitive tests; format: in vivo; settings: human
# Source text: D. Neurocognative Tests: The Cognitive Drug Research (CDR) computerized assessment system is specifically designed to evaluate the effects of compounds on the quality of cognitive functioning in subjects and patients in all phases of clinical development. The CDR system is a widely used computerized cognitive assessment system (see, for example, Ebert U, et al., “Pharmacokinetics and pharmacodynamics of scopolamine after subcutaneous administration,” Journal of Clinical Pharmacology 38: 720-726 (1998); Harrington F, et al., “Cognitive Performance in Hypertensive and Normotensive Older Subjects,” Hypertension 36: 1079-1082 (2000); Preece A W, et al., “Effect of a 915-MHz simulated mobile phone signal on cognitive function in man,” International Journal of Radiation Biology 75: 447-456 (1999); and Walker M P, et al., “Quantifying fluctuation in Dementia with Lewy Bodies, Alzheimer's disease and vascular dementia,” Neurology 54: 1616-1625 (2000)) and has been used to evaluate a diverse range of pharmaceutical compounds.
# This example describes the pharmacodynamic effects of clonazepam compositions formulated for intranasal administration using neurocognitive tests. A selection of tests from a computerized assessment system of Cognitive Drug Research (“CDR,” Reading, United Kingdom) is employed. The study is typically a double-blind, randomized, placebo-controlled cross-over design. As a control, the group may receive clonazepam intravenous (i.v.) and placebo at selected dosages.
# Cognitive function is typically assessed using an attentional task battery to assess attention and a word recognition task to assess secondary memory. […]
# Tests may be administered, for example, in the following order: Word Presentation; Simple Reaction Time; Digit Vigilance; Choice Reaction Time; and Word Recognition. […] Summary statistics (m, number; mean; sem, standard error; sd, standard deviation; median; min, minimum; max, maximum; and missing) are typically calculated for each measure at each time point by dose. […]
# [3] = Drug recovery, degradation and binding to nasal sheep mucosa; format: in vitro ADME
# Protocol: (i) Drug recovery, degradation and binding to nasal sheep mucosa: The effect of drug recovery, degradation and binding to sheep nasal mucosa was determined. Briefly, a known surface area (approx. 1 cm^2) of sheep nasal mucosa was added into a glass vial containing a known concentration (10 μg/mL) of each drug prepared in the receiver fluid (10% ethanol in pH 6 buffer). The content of the vial was allowed to equilibrate at 37° C. over a period of 48 h. At 24 h intervals, a sample was removed and assayed via HPLC. The percentage of drug recovered was calculated using Equation 4: % drug recovered=(drug concentration at t=Y/drug concentration at t=Z)×100 (Equation 4)
# where, Y=specific time point at 37° C. (in the presence of nasal sheep mucosa); and Z=specific time point at 37° C. (in the absence of nasal sheep mucosa).
# In addition to the stability against heat degradation, the effect of drug binding or degradation in the presence of nasal sheep mucosa was also determined (Table 6).
# [4] = Solubility of clonazepam in neat solvents; settings: neat PEG 300
# Protocol: The solubility of clonazepam in a number of neat solvents was determined using standard methods.
# [5] = In vitro permeation across sheep nasal mucosa, Franz cells; settings: saturated solution, Franz cell, 7 h, FIG. 1
# Protocol: Freshly excised sheep nasal mucosa was used and prepared following a standard protocol. The excised sheep nasal mucosa was cleaned by rinsing with de-ionized water and either used fresh or placed flat over a filter paper and stored frozen until used.
# (ii) Dosing and Sample Collection—Franz cell studies: Individually calibrated Franz cells with an average surface area and volume of approximately 0.6 cm^2 and 2 mL, respectively, were employed to determine the permeation characteristics of drug. The nasal sheep mucosa was mounted between the two halves of the Franz cell with the mucosal side facing the donor compartment. The receptor compartment was filled with receiver fluid, stirred constantly with a PTFE-coated magnetic follower driven by a submersible magnetic stirrer bed and maintained at 37° C. in a water bath. Approximately 1 mL (infinite dose) of saturated drug solution was placed into the donor compartment and covered with […] ® (Pechiney Plastic Packaging, Inc., Chicago, Ill.) throughout the study. Following the application of the drug solution, the receiver fluid (200 μL) was removed from the receptor compartment via the sampling arm after sampling times (t=1, 2, 3, 4, 5, 6 and 7 h) and analyzed via HPLC. Each sample removed was replaced by an equal volume of fresh pre-warmed (37° C.) receiver fluid. […]
compound,measurement,setting,value
"O=C1CN=C(c2ccccc2Cl)c2cc([N+](=O)[O-])ccc2N1 [Clonazepam, 5-(2-chlorophenyl)-1,3-dihydro-7-nitro-2H-1,4-benzodiazepin-2-one]",Cmax of the intranasal route as % of that of the intravenous route,[1]; 1 mg,17%
same,Cmax of the intranasal route as % of that of the oral route,[1]; 1 mg,93%
same,median Tmax,"[1]; 1 mg single dose, intravenous, 15 volunteers",6 min
same,mean Cmax (mean ±SD),"[1]; 1 mg, intranasal route",7.12 ± 3.81 ng/mL
same,mean Cmax (mean ±SD),"[1]; 1 mg, intravenous route",42.5±10.8
same,mean Cmax (mean ±SD),"[1]; 1 mg, oral route",7.64 ± 1.74 ng/mL
same,subjects reporting somnolence,"[1]; after intranasal dosing, 10 of 15",approximately 67%
same,subjects reporting nasal discomfort,"[1]; after intranasal dosing, 12 of 15",approximately 80%
same,subjects reporting sedation,[1]; after intravenous dosing,3/15
same,subjects reporting somnolence,[1]; after intravenous dosing,11/15
same,subjects reporting somnolence or sedation,[1]; after intravenous dosing,Approximately 93%
same,subjects reporting somnolence,"[1]; after oral dosing, 13 of 15",approximately 87%
same,"time at which effects were first apparent (Leeds Psychomotor Test, Bond and Lader VAS, Karolinska Sleepiness Scale)",[2]; intranasal administration,approximately 30 minutes
same,"time at which effects were first apparent (Leeds Psychomotor Test, Bond and Lader VAS, Karolinska Sleepiness Scale)",[2]; intravenous administration,approximately 30 minutes
same,"time at which effects were first apparent (Leeds Psychomotor Test, Bond and Lader VAS, Karolinska Sleepiness Scale)",[2]; oral administration,approximately 2 hours
same,degree of binding or degradation in the presence of nasal sheep mucosa,[3]; 37° C.,< 10%
same,drug recovered in the presence of nasal sheep mucosa,[3]; 37° C. over 48 h,greater than 95%
same,Solubility,[4],37.0 mg/mL
same,permeation across sheep nasal mucosa,[5],at steady state
